Consider four compounds from article PMC2649372 (Biochemistry, 2008).

Molecules are shown by their SMILES. Positions count from the first letter of the chain named. Where “and” joins values, the source holds several entries; their conditions need not be identical. Equal entries are not always repeated. Marks after values point to notes of the source that are not given here.

Assay [1] concerns the target T1, N128A mutant 5-HT3 receptor (mouse 5-HT3A subunit) (Mus musculus, UniProt P23979, N128A).
T1 sequence (P23979 24-483 isoform P23979-2 N128A limits assumed): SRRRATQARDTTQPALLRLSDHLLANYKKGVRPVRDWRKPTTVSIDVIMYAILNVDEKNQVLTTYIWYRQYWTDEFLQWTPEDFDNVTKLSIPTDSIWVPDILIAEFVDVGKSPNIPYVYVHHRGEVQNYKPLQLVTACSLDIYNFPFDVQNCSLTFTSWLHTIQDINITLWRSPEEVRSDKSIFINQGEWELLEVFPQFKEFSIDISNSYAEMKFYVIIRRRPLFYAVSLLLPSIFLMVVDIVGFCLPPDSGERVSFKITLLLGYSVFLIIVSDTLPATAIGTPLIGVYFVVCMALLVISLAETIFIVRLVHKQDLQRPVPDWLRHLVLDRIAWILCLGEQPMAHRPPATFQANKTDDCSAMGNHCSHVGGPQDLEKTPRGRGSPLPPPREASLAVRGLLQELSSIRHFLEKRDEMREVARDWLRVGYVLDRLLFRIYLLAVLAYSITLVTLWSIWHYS
Put plainly: Agonist-induced currents, voltage clamp electrophysiology in Xenopus oocytes. The assay is classed as cell-based. As to conditions: for nH (Hill coefficient): N128A.

In assay [2] the target is T2, WT 5-HT3 receptor (mouse 5-HT3A subunit) (Mus musculus, UniProt P23979).
T2 sequence (P23979 24-483 isoform P23979-2 limits assumed): T1 sequence (P23979 24-483 isoform P23979-2 N128A limits assumed) with A105N
The description is as above. The assay is classed as cell-based. The settings on record: for nH (Hill coefficient): WT; for EC50: oocytes, holding potential −60 mV.

In assay [3] the target is T3, E129N mutant 5-HT3 receptor (mouse 5-HT3A subunit) (Mus musculus, UniProt P23979, E129N).
T3 sequence (P23979 24-483 isoform P23979-2 E129N limits assumed): T1 sequence (P23979 24-483 isoform P23979-2 N128A limits assumed) with A105N, E106N
The assay is described as above. The assay is classed as cell-based.

The target of assay [4] is T4, N128Q mutant 5-HT3 receptor (mouse 5-HT3A subunit) (Mus musculus, UniProt P23979, N128Q).
T4 sequence (P23979 24-483 isoform P23979-2 N128Q limits assumed): T1 sequence (P23979 24-483 isoform P23979-2 N128A limits assumed) with A105Q
The assay is described as above. The assay is classed as cell-based. The settings on record: for nH (Hill coefficient): N128Q.

The target of assay [5] is T5, N128D mutant 5-HT3 receptor (mouse 5-HT3A subunit) (Mus musculus, UniProt P23979, N128D).
T5 sequence (P23979 24-483 isoform P23979-2 N128D limits assumed): T1 sequence (P23979 24-483 isoform P23979-2 N128A limits assumed) with A105D
Described as above. The assay is classed as cell-based.

Assay [6] concerns the target T6, E129D mutant 5-HT3 receptor (mouse 5-HT3A subunit) (Mus musculus, UniProt P23979, E129D).
T6 sequence (P23979 24-483 isoform P23979-2 E129D limits assumed): T1 sequence (P23979 24-483 isoform P23979-2 N128A limits assumed) with A105N, E106D
The description is as above. The assay is classed as cell-based.

Assay [7] concerns the target T7, N128E mutant 5-HT3 receptor (mouse 5-HT3A subunit) (Mus musculus, UniProt P23979, N128E).
T7 sequence (P23979 24-483 isoform P23979-2 N128E limits assumed): T1 sequence (P23979 24-483 isoform P23979-2 N128A limits assumed) with A105E
Described as above. The assay is classed as cell-based. As to conditions: for nH (Hill coefficient): N128E.

In assay [8] the target is E129A mutant 5-HT3 receptor (mouse 5-HT3A subunit) (Mus musculus, UniProt P23979, E129A). Put plainly: Single-point [3H]granisetron binding to solubilized oocyte preparations. The settings on record: 0.5 nM [3H]granisetron.
E129A mutant 5-HT3 receptor (mouse 5-HT3A subunit), sequence (P23979 24-489 E129A): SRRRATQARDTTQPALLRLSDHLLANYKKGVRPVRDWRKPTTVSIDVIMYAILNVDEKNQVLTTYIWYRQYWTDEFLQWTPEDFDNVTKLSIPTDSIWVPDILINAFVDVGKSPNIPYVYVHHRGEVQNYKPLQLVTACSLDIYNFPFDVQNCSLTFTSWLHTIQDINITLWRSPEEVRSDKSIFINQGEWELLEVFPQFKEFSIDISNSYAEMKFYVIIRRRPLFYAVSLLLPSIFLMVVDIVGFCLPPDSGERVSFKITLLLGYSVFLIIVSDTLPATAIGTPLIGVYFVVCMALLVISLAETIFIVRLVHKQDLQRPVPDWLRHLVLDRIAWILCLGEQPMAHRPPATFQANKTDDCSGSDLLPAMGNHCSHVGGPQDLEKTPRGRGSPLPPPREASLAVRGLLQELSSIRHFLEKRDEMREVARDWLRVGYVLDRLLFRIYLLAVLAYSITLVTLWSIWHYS
In assay [9] the test system is Asn128 mutant 5-HT3 receptors. As to conditions: Asn128 mutant receptors in HEK cells; cited from earlier work.
For assay [10], the target named is E129K mutant 5-HT3 receptor (mouse 5-HT3A subunit) (Mus musculus, UniProt P23979, E129K). Put plainly: Single-point [3H]granisetron binding to solubilized oocyte preparations. The settings on record: 0.5 nM [3H]granisetron.
E129K mutant 5-HT3 receptor (mouse 5-HT3A subunit), sequence (P23979 24-483 isoform P23979-2 E129K limits assumed): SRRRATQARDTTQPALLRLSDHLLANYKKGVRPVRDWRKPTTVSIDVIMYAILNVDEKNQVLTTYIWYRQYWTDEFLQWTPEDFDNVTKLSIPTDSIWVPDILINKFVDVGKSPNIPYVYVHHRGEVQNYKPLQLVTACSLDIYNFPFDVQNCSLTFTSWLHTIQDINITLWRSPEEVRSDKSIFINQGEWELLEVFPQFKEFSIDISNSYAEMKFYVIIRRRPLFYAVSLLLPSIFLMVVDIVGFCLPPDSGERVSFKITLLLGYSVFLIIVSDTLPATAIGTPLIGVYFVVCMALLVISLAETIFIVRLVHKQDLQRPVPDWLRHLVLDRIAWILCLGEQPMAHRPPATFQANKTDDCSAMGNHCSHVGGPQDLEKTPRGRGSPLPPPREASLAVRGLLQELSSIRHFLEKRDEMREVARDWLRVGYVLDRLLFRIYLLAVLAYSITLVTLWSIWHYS
Assay [11] concerns the target E129G mutant 5-HT3 receptor (mouse 5-HT3A subunit) (Mus musculus, UniProt P23979, E129G). The assay is described as above. As to conditions: 0.5 nM [3H]granisetron.
In assay [12] the test system is Glu129 mutant 5-HT3 receptors. The settings on record: any Glu129 mutant receptor in HEK cells; concentrations up to 20 nM; cited from earlier work.
Assay [13] addresses T6, E129D mutant 5-HT3 receptor (mouse 5-HT3A subunit). Put plainly: Granisetron inhibition of 5-HT-induced responses in oocytes. The settings on record: EC50 concentration of 5-HT. The assay is classed as cell-based.
Assay [14] deals with T3, E129N mutant 5-HT3 receptor (mouse 5-HT3A subunit). The assay is described as above. As to conditions: 100 nM granisetron, EC50 concentration of 5-HT. The assay is classed as cell-based.

E129G mutant 5-HT3 receptor (mouse 5-HT3A subunit), sequence (P23979 24-483 isoform P23979-2 E129G limits assumed): as the sequence (P23979 24-483 isoform P23979-2 E129K limits assumed) above, with K106G counted along it

Regarding `NCCc1c[nH]c2ccc(F)cc12` [5-FT, 5-fluorotryptamine], the EC50 (as a rule, the midpoint of the concentration-response curve) in assay [1] is 10 µM; in assay [2] (pEC50, WT) it was 17.8 µM; in [3] it was 11.7 µM; in assay [4], 94 µM; in [5], 17.8 µM; in assay [6] it was 8.3 µM. In assay [7], this compound showed an EC50 of 13.8 µM. The “nH (Hill coefficient)” value in assay [1] is given as 2.34 ± 0.75; in assay [2], 2.71 ± 0.24; in assay [3] (E129N), 1.25 ± 0.13 ^b; in assay [4], 2.38 ± 0.58; in assay [5] (N128D) it was 2.61 ± 0.28; in [6] (E129D), 1.95 ± 0.30. In addition, the “nH (Hill coefficient)” value in assay [7] is listed as 1.97 ± 0.18.
As for `CN1C2CCCC1CC(NC(=O)c1nn(C)c3ccccc13)C2` (stereo not shown) [[^3H]granisetron], the specific radioligand binding result in assay [8], in [10] and in assay [11] was “No specific radioligand binding” each time. Moreover, the “binding affinity vs WT” value in assay [9] was “no significant differences”. Moreover, the specific binding entry in [12] was “no specific binding”.
For `CN1C2CCCC1CC(NC(=O)c1nn(C)c3ccccc13)C2` (stereo not shown) [granisetron], the “block of the response to 5-HT” value in [13] (10 nM granisetron) is 80 ± 5% and ~80%; in assay [13] (100 nM granisetron) it was 96 ± 3%; in assay [14] it was “did not block”.
Turning to `NCCc1c[nH]c2ccccc12` [tryptamine], the EC50 in assay [1] is 91 µM; in assay [2] (EC50, WT), 120 µM; in [2] (pEC50, WT), 117 µM; in assay [4], 240 µM; in [7], 59 µM. In addition, the “nH (Hill coefficient)” value in assay [1] was found to be 2.90 ± 0.68; in assay [2], 2.86 ± 0.14; in [4], 3.10 ± 0.39; in assay [7], 2.90 ± 0.53.
